# According to US20090221567A1, “MUSCARINIC RECEPTOR AGONISTS, COMPOSITIONS, METHODS OF TREATMENT THEREOF, AND PROCESSES FOR PREPARATION THEREOF 177” (ASTRAZENECA AB, priority 2008, published 2009):
# Legend:
# [1] = target: T1, hM1 (human Muscarinic receptor subtype 1) (Homo sapiens, UniProt P11229); assay: Human M1 calcium mobilization FLIPR assay; type: cell-based; details: receptor expressed in CHO cells, intracellular Ca2+ release; read-out: hM1 EC50
# T1 construct: expressed in transfected cells; host or cells: CHO cells (Chinese hamster ovary cells, ATCC)
# T1 sequence (P11229 1-460): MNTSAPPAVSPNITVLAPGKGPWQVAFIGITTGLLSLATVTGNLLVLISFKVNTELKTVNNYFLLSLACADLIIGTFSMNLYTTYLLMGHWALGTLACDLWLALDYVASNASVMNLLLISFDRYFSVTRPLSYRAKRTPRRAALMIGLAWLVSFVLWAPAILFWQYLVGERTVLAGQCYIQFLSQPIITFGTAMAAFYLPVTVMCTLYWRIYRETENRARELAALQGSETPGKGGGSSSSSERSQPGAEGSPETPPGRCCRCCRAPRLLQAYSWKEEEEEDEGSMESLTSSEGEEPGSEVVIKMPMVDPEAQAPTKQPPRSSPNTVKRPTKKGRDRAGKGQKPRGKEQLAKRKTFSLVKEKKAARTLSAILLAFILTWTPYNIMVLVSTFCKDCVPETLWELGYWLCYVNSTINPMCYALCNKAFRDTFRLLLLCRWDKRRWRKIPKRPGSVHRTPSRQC
# Protocol: (§1) The compound activity in the present invention (EC50 or IC50) is measured using a 384 plate-based imaging assay that monitors drug induced intracellular Ca^2+ release in whole cells. Activation of hM1 (human Muscarinic receptor subtype 1, gene bank access NM_000738), rM1 (rat Muscarinic receptor subtype 1, gene bank access NM_080773), hM3 (human Muscarinic receptor subtype 3, gene bank access NM_000740NM_000740) and hM5 (human Muscarinic receptor subtype 5, gene bank access NM_0121258), receptors expressed in CHO cells (Chinese hamster ovary cells, ATCC) is quantified in a Molecular Devices FLIPR IITM instrument as an increase in fluorescent signal. Inhibition of hM3 and hM5 by compounds is determined by the decrease in fluorescent signal in response to 2 nM acetylcholine activation.
# (§2) Prior to experiment, the cell culture medium is removed from the plates by inversion. […] Plates are incubated at 37° C. for 60 minutes prior to start the experiment. The incubation is terminated by washing the cells four times in assay buffer, leaving a residual 25 μl buffer per well. Cell plates are then transferred to the FLIPR, ready for compound additions.
# (§3) The day of experiment, acetylcholine and compounds are diluted in assay buffer in three-fold concentration range (10 points serial dilution) for addition by FLIPR instrument. For all calcium assays, a baseline reading is taken for 10 seconds followed by the addition of 12.5 μl of compounds, resulting in a total well volume of 37.5 μl. Data is collected every second for 60 pictures and then every 6 seconds for 20 pictures prior to the addition of agonist. For hM3 and hM5, before agonist addition, a second baseline reading is taken for 10 seconds followed by the addition of 12.5 μl of agonist or buffer, producing a final volume of 50 μl. After agonist stimulation, the FLIPR continues to collect data every second for 60 pictures and then every 6 seconds for 20 pictures. The fluorescence emission is read using filter 1 (emission 510-570 nm) by the FLIPR on board CCD camera.
# (§4) Calcium mobilization output data are calculated as the maximal relative fluorescence unit (RFU) minus the minimal value for both compound and agonist reading frame (except for hM1 and rM1 using only the maximal RFU). Data are analyzed using sigmoidal fits of a non-linear curve-fitting program (XLfit version 4.2.2 Excel add-in version 4.2.2 build 18 math 1Q version 2.1.2 build 18). All pEC50 and pIC50 values are reported as arithmetic means±standard error of mean of ‘n’ independent experiments.
# [2] = target: T2, human M4 receptor (human Muscarinic receptor subtype 4) (Homo sapiens, UniProt P08173); assay: hM4 receptor GTPγS binding; type: biochemical; details: CHO membranes, [35S]GTPγS binding
# T2 construct: purchased Perkin-Elmer RBHM4M; host or cells: membranes from CHO cells expressing the cloned receptor
# T2 sequence (P08173 1-479): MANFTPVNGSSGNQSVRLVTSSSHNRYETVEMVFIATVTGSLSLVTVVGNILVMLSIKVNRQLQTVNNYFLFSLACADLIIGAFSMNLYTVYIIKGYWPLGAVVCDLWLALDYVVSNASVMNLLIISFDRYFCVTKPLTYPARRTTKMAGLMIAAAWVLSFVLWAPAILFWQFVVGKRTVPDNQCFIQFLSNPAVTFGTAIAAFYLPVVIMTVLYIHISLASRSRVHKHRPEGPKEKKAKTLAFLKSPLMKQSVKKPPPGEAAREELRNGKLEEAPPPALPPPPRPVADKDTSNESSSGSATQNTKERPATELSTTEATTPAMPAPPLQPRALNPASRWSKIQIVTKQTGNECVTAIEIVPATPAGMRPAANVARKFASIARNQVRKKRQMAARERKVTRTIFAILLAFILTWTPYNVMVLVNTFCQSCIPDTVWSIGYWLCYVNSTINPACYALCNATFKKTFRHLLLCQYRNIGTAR
# Protocol: Membranes produced from Chinese hamster ovary cells (CHO) expressing the cloned human M4 receptor (human Muscarinic receptor subtype 4, gene bank access NM_000741), are obtained from Perkin-Elmer (RBHM4M). The membranes are thawed at 37° C., passed 3 times through a 23-gauge blunt-end needle, diluted in the GTPγS binding buffer (50 mM Hepes, 20 mM NaOH, 100 mM NaCl, 1 mM EDTA, 5 mM MgCl2, pH 7.4, 100 μM DTT). The EC50, IC50 and Emax of the compounds of the invention are evaluated from 10-point dose-response curves (three fold concentration range) done in 60 μl in 384-well non-specific binding surface plate (Corning). Ten microliters from the dose-response curves plate (5× concentration) are transferred to another 384 well plate containing 25 μl of the following: 10 μg of hM4 membranes, 500 μg of Flashblue beads (Perkin-Elmer) and GDP 40 μM. An additional 15 μl containing 3.3× (60,000 dpm) of GTPγS (0.4 nM final) are added to the wells resulting in a total well volume of 50 μl. Basal and maximal stimulated [^35S]GTPγS binding are determined in absence and presence of 30 μM final of acetylcholine agonist. The membranes/beads mix are pre-incubated for 15 minutes at room temperature with 40 μM GDP prior to distribution in plates (20 μM final). The reversal of acetylcholine-induced stimulation (10 μM final) of [^35S]GTPγS binding is used to assay the antagonist properties (IC50) of the compounds. The plates are incubated for 60 minutes at room temperature then centrifuged at 400 rpm for 5 minutes. The radioactivity (cpm) is counted in a Trilux (Perkin-Elmer).
# Values of EC50, IC50 and Emax are obtained using sigmoidal fits of a non-linear curve-fitting program (XLfit version 4.2.2 Excel add-in version 4.2.2 build 18 math 1Q version 2.1.2 build 18) of percent stimulated [^35S]GTPγS binding vs. log(molar ligand). All pEC50 and pIC50 values are reported as arithmetic means±standard error of mean of ‘n’ independent experiments.
# [3] = target: T3, hM3 (human Muscarinic receptor subtype 3) (Homo sapiens, UniProt P20309); assay: Human M3 calcium mobilization FLIPR assay; type: cell-based; details: receptor expressed in CHO cells, intracellular Ca2+ release
# T3 construct: expressed in transfected cells; host or cells: CHO cells (Chinese hamster ovary cells, ATCC)
# Protocol: as §1, §2, §3, §4
# T3 sequence (P20309 whole entry): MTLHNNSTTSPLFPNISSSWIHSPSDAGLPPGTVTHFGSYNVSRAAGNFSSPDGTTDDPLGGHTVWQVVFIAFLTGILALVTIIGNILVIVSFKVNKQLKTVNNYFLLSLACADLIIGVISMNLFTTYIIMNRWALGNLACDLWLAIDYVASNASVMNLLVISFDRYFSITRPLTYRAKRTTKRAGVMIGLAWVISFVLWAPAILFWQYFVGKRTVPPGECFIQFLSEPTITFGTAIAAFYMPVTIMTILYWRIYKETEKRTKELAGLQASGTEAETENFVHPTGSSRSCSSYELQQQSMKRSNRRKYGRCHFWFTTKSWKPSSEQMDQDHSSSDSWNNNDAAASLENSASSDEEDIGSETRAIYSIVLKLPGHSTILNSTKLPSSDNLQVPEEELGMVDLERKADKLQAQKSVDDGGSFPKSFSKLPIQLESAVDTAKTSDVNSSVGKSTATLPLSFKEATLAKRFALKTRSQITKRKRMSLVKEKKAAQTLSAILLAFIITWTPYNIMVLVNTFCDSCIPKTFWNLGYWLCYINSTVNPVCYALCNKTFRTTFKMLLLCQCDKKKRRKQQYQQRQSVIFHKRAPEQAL
smiles,measurement,setting,value
"Cc1ccccc1C(=O)N1CCC(N2CCC(N3C(=O)CO[C@H]4CCCC[C@@H]43)CC2)CC1 [Example 11, (1S,6S)-10-[1-[1-(2-methylbenzoyl)-4-piperidyl]-4-piperidyl]-7-oxa-10-azabicyclo[4.4.0]decan-9-one]",EC50,[1],170 nM
same,EC50,[2],> 30000 nM
same,EC50,[3],> 40000 nM
"CCOC(=O)N1CCC(C)(N2CCC(N3C(=O)NC[C@H]4CCCC[C@@H]43)CC2)CC1 [Example 7, Ethyl 4-[4-[(4aR,8aS)-2-oxo-3,4,4a,5,6,7,8,8a-octahydroquinazolin-1-yl]-1-piperidyl]-4-methyl-piperidine-1-carboxylate]",EC50,[1],4.5 nM
same,EC50,[2],> 1600 nM
same,EC50,[3],690 nM
"Cn1cccc1C(=O)N1CCC(N2CCC(N3C(=O)CO[C@H]4CCCC[C@@H]43)CC2)CC1 [Example 12, (1S,6S)-10-[1-[1-(1-methylpyrrole-2-carbonyl)-4-piperidyl]-4-piperidyl]-7-oxa-10-azabicyclo[4.4.0]decan-9-one]",EC50,[1],340 nM
same,EC50,[2],> 30000 nM
same,EC50,[3],> 40000 nM
"CCOC(=O)N1CCC(C)(N2CCC(N3C(=O)CO[C@H]4CCCC[C@@H]43)CC2)C1 (single isomer, unassigned) [Example 19]",EC50,[1],46 nM
same,EC50,[2],> 30000 nM
same,EC50,[3],> 40000 nM
"CC(C)OC(=O)N1CCC(N2CCC(N3C(=O)CO[C@@H]4CCCC[C@H]43)CC2)CC1 [Example 14, Propan-2-yl 4-[4-[(1R,6R)-9-oxo-7-oxa-10-azabicyclo[4.4.0]dec-10yl]-1-piperidyl]piperidine-1-carboxylate]",EC50,[1],130 nM
same,EC50,[2],> 30000 nM
same,EC50,[3],> 40000 nM
"CCOC(=O)N1CCC(N2CCC(N3C(=O)OC[C@H]4CCCC[C@@H]43)CC2)CC1 [Example 15, Ethyl 4-[4-[(1S,6S)-9-oxo-8-oxa-10-azabicyclo[4.4.0]dec-10-yl]-1-piperidyl]piperidine-1-carboxylate]",EC50,[1],83 nM
same,EC50,[2],> 30000 nM
same,EC50,[3],> 40000 nM
"CC(C)OC(=O)N1CCC(N2CCC(N3C(=O)CO[C@H]4CCCC[C@@H]43)CC2)CC1 [Example 10, Propan-2-yl 4-[4-[(1S,6S)-9-oxo-7-oxa-10-azabicyclo[4.4.0]dec-10-yl]-1-piperidyl]piperidine-1-carboxylate]",EC50,[1],22 nM
same,EC50,[2],> 30000 nM
same,EC50,[3],> 40000 nM
"CCOC(=O)N1CCC(N2CCC(N3C(=O)NC[C@H]4CCCC[C@@H]43)CC2)CC1 [Example 1, Ethyl 4-[4-[(4aR,8aS)-2-oxo-3,4,4a,5,6,7,8,8a-octahydroquinazolin-1-y]-1-piperidyl]piperidine-1-carboxylate]",EC50,[1],1.6 nM
same,EC50,[2],1700 nM
"Cc1ccccc1C(=O)N1CCC(N2CCC(N3C(=O)NC[C@H]4CCCC[C@@H]43)CC2)CC1 [Example 4, (4aR,8aS)-1-[1-[1-(2-methylbenzoyl)-4-piperidyl]-4-piperidyl]-3,4,4a,5,6,7,8,8a-octahydroquinazolin-2-one]",EC50,[1],25 nM
same,EC50,[2],> 30000 nM
same,EC50,[3],> 49000 nM
"CC(C)OC(=O)N1CCC(N2CCC(N3C(=O)NC[C@H]4CCCC[C@@H]43)CC2)CC1 [Example 2, Propan-2-yl 4-[4-[(4aR,8aS)-2-oxo-3,4,4a,5,6,7,8,8a-octahydroquinazolin-1-yl]-1-piperidyl]piperidine-1-carboxylate]",EC50,[1],5.3 nM
same,EC50,[2],> 20000 nM
same,EC50,[3],> 49000 nM
"CC(C)OC(=O)N1CCC(C)(N2CCC(N3C(=O)NC[C@H]4CCCC[C@@H]43)CC2)CC1 [Example 8, Propan-2-yl 4-[4-[(4aR,8aS)-2-oxo-3,4,4a,5,6,7,8,8a-octahydroquinazolin-1-yl]-1-piperidyl]-4-methyl-piperidine-1-carboxylate]",EC50,[1],< 11 nM
same,EC50,[2],> 30000 nM
same,EC50,[3],> 40000 nM
"CCOC(=O)N1CCC(C)(N2CCC(N3C(=O)CO[C@H]4CCCC[C@@H]43)CC2)C1 (single isomer, unassigned) [Example 18]",EC50,[1],23 nM
same,EC50,[2],8970 nM
same,EC50,[3],> 40000 nM
"CCOC(=O)N1CC[C@H](N2CCC(N3C(=O)CO[C@H]4CCCC[C@@H]43)CC2)C1 [Example 13, Ethyl (3S)-3-[4-[(1S,6S)-9-oxo-7-oxa-10-azabicyclo[4.4.0]dec-10-yl]-1-piperidyl]pyrrolidine-1-carboxylate]",EC50,[1],200 nM
same,EC50,[2],> 30000 nM
same,EC50,[3],> 40000 nM
"O=C(C1CC1)N1CCC(N2CCC(N3C(=O)NC[C@H]4CCCC[C@@H]43)CC2)CC1 [Example 3, (4aR,8aS)-1-[1-[1-(cyclopropanecarbonyl)-4-piperidyl]-4-piperidyl]-3,4,4a,5,6,7,8,8a-octahydroquinazolin-2-one]",EC50,[1],13 nM
same,EC50,[2],> 30000 nM
same,EC50,[3],> 49000 nM
"CCOC(=O)N1CCC(N2CCC(N3C(=O)CO[C@H]4CCCC[C@@H]43)CC2)CC1 [Example 9, Ethyl 4-[4-[(1S,6S)-9-oxo-7-oxa-10-azabicyclo[4.4.0]dec-10-yl]-1-piperidyl]piperidine-1-carboxylate]",EC50,[1],17 nM
same,EC50,[2],4300 nM
same,EC50,[3],> 40000 nM
"CC(C)OC(=O)N1CCC(N2CCC(N3C(=O)N(C)C[C@H]4CCCC[C@@H]43)CC2)CC1 [Example 6, Propan-2-yl 4-[4-[(4aR,8aS)-3-methyl-2-oxo-4a,5,6,7,8,8a-hexahydro-4H-quinazolin-1-yl]-1-piperidyl]piperidine-1-carboxylate]",EC50,[1],94 nM
same,EC50,[2],> 30000 nM
same,EC50,[3],> 40000 nM
